# Values quoted from earlier work as cited in patent publication US20240415113A1, “COMPOSITION AND METHOD FOR ATTRACTING VESPID WASPS” (BanfieldBio Inc., priority 2023, published 2024).
# Columns and labels:
# western yellowjackets = conditions: Oregon peach orchard, 10 days in 1969
# vespid wasps = conditions: 50 μL heptyl butyrate and 1 g chicken meat extract, separately or together in the receiving chamber
smiles,measurement,setting,value
CCCCCCCOC(=O)CCC [Heptyl butyrate],western yellowjackets captured per trap,western yellowjackets,over 800 western yellowjackets per trap
same,trap catch comparison in words,vespid wasps,impeded entry into traps baited with the chicken extract
